pIC50: −log10 of the molar value.
Assays:
[1] = Cytotoxicity against human C-28/I2 cells measured after 72 hrs by CCK8 assay; assay type: toxicity, cell-based
[2] = tested on: MCF7; test: Antiproliferative activity against human MCF7 cells assessed as inhibition of cell growth measured after 72 hrs by CCK8 assay; assay type: functional, cell-based; conditions: MCF7, 72 h
[3] = tested on: A-375; test: Antiproliferative activity against human A-375 cells assessed as inhibition of cell growth measured after 72 hrs by CCK8 assay; assay type: functional, cell-based; conditions: A-375, 72 h
[4] = tested on: SK-HEP1; test: Antiproliferative activity against human SK-HEP1 cells assessed as inhibition of cell growth measured after 72 hrs by CCK8 assay; assay type: functional, cell-based; conditions: SK-HEP1, 72 h
[5] = tested on: SK-MEL-2; test: Antiproliferative activity against human SK-MEL-2 cells assessed as inhibition of cell growth measured after 72 hrs by CCK8 assay; assay type: functional, cell-based; conditions: SK-MEL-2, 72 h

SMILES | CC50 at 72 h [1] | pIC50 [2] | pIC50 [3] | pIC50 [4] | pIC50 [5]
CC(C)Nc1c(Cc2ccccc2)c(=O)n(C)c2c1c(=O)n(C)c(=O)n2C | > 100 µM | 5.00 | 4.61 |  | 
CCn1c(=O)n(C)c(=O)c2c(Nc3ccccn3)cc(=O)n(C)c21 | > 100 µM | 4.46 | 4.40 |  | 
Cc1ccccc1NC(=O)CNc1cc(=O)n(C)c2c1c(=O)n(C)c(=O)n2C | > 100 µM | 4.76 | 4.89 |  | 
Cc1ccccc1NC(=O)CNc1cc(N2CCCC2)nc2c1c(=O)n(C)c(=O)n2C | > 100 µM | 4.80 | 5.12 | 4.97 | 5.18
Cn1c(=O)c2c(NCC(=O)Nc3cccc(C(F)(F)F)c3)cc(N3CCOCC3)nc2n(C)c1=O | > 100 µM | 4.92 | 5.13 | 4.96 | 5.39
COC(=O)c1ccccc1Nc1cc(=O)n(C)c2c1c(=O)n(C)c(=O)n2C | > 100 µM | 4.48 | < 4.30 |  | 
Cc1ccccc1NC(=O)CNc1cc(N(C)C)nc2c1c(=O)n(C)c(=O)n2C | > 100 µM | 4.30 | < 4.30 |  | 
CN1CCN(c2cc(NCC(=O)Nc3ccc(Cl)cc3)c3c(=O)n(C)c(=O)n(C)c3n2)CC1 | > 25 µM | < 4.30 | < 4.30 | < 4.30 | 4.65
Cn1c(=O)c2c(Nc3ccccn3)cc(=O)n(C)c2n(C)c1=O | > 100 µM | 4.99 | 4.60 |  | 
CN(C)c1cc(NCC(=O)Nc2ccc(Cl)cc2)c2c(=O)n(C)c(=O)n(C)c2n1 | > 100 µM | 4.31 | < 4.30 |  | 
Cn1c(=O)c2c(NCC(=O)Nc3ccc(F)cc3)cc(N3CCCC3)nc2n(C)c1=O | > 100 µM | 4.40 | < 4.30 |  | 
CN(C)CCNc1c(Cc2ccccc2)c(=O)n(C)c2c1c(=O)n(C)c(=O)n2C | > 100 µM | < 4.30 | < 4.30 |  | 
Cn1c(=O)c2c(NCC(=O)Nc3ccc(Cl)cc3)cc(N3CCOCC3)nc2n(C)c1=O | > 100 µM |  | 4.36 |  | 4.33
Cn1c(=O)c2c(NCCCN3CCOCC3)c(Cc3ccccc3)c(=O)n(C)c2n(C)c1=O | > 100 µM | < 4.30 | < 4.30 |  | 
CN(C)c1cc(NCC(=O)Nc2cccc(Cl)c2)c2c(=O)n(C)c(=O)n(C)c2n1 | > 100 µM |  | < 4.30 |  | 4.39
CN(C)c1cc(NCC(=O)Nc2ccc(OC(F)(F)F)cc2)c2c(=O)n(C)c(=O)n(C)c2n1 | > 25 µM |  | 4.41 |  | < 4.30
Cn1c(=O)c2c(NCC(=O)Nc3cccc(Cl)c3)cc(N3CCCC3)nc2n(C)c1=O | > 100 µM |  | 4.31 |  | < 4.30
Cn1c(=O)c2c(NCC(=O)Nc3ccc(F)cc3)cc(N3CCOCC3)nc2n(C)c1=O | > 100 µM | 4.34 | < 4.30 |  | 

SMILES | CC50 at 72 h [1] | pIC50 [2] | pIC50 [3] | pIC50 [4] | pIC50 [5]
Cn1c(=O)c2c(NC3CC3)c(Cc3ccccc3)c(=O)n(C)c2n(C)c1=O | > 100 µM | 4.44 | 4.34 |  | 
CN1CCN(c2cc(NCC(=O)Nc3ccc(OC(F)(F)F)cc3)c3c(=O)n(C)c(=O)n(C)c3n2)CC1 | > 100 µM | 4.41 | 4.52 | 4.47 | 4.44
Cn1c(=O)c2c(NCC(=O)Nc3ccc(C(F)(F)F)cc3)cc(N3CCOCC3)nc2n(C)c1=O | > 100 µM | 4.33 | < 4.30 |  | 
Cn1c(=O)c2c(Nc3ccc(F)c(Cl)c3)cc(=O)n(C)c2n(C)c1=O | > 100 µM | < 4.30 | 4.30 |  | 
CCn1c(=O)n(C)c(=O)c2c(Nc3ccc(F)c(Cl)c3)cc(=O)n(C)c21 | > 100 µM | < 4.30 | < 4.30 |  | 
Cn1c(=O)c2c(NCC(=O)Nc3ccc(OC(F)(F)F)cc3)cc(N3CCCC3)nc2n(C)c1=O | > 100 µM | 4.44 | < 4.30 |  | 
Cc1cccc(NC(=O)CNc2cc(N3CCN(C)CC3)nc3c2c(=O)n(C)c(=O)n3C)c1 | > 25 µM |  | 4.40 | 4.76 | 4.37
CCn1c(=O)n(C)c(=O)c2c(Nc3ccccc3C(=O)OC)cc(=O)n(C)c21 | > 100 µM | < 4.30 | < 4.30 |  | 
CN(C)c1cc(NCC(=O)Nc2ccc(C(F)(F)F)cc2)c2c(=O)n(C)c(=O)n(C)c2n1 | > 50 µM |  | 4.36 |  | < 4.30
Cn1c(=O)c2c(Nc3ccc(OC(F)(F)F)cc3)cc(=O)n(C)c2n(C)c1=O | > 100 µM | 4.30 | 4.39 |  | 
CN(C)c1cc(NCC(=O)Nc2cccc(C(F)(F)F)c2)c2c(=O)n(C)c(=O)n(C)c2n1 | > 100 µM |  | 4.50 |  | < 4.30
Cn1c(=O)c2c(NCC(=O)Nc3ccc(Cl)cc3)cc(N3CCCC3)nc2n(C)c1=O | > 100 µM | 4.39 | 4.32 |  | 
O=c1[nH]cc(F)c(=O)[nH]1 [FLUOROURACIL] |  | 5.13 | 5.22 | 5.31 | 5.19
CN1CCN(c2cc(NCC(=O)Nc3cccc(C(F)(F)F)c3)c3c(=O)n(C)c(=O)n(C)c3n2)CC1 | > 100 µM |  | 4.35 |  | < 4.30
Cn1c(=O)c2c(NCC(=O)Nc3ccccc3)cc(N3CCCC3)nc2n(C)c1=O | > 100 µM | 4.37 | < 4.30 |  | 
CN1CCN(c2cc(NCC(=O)Nc3ccc(C(F)(F)F)cc3)c3c(=O)n(C)c(=O)n(C)c3n2)CC1 | > 50 µM | < 4.30 | < 4.30 |  | 4.33
CN1CCN(c2cc(NCC(=O)Nc3ccc(F)cc3)c3c(=O)n(C)c(=O)n(C)c3n2)CC1 | > 50 µM | 4.48 | 4.35 | 4.47 | 4.70
CN(C)c1cc(NCC(=O)Nc2ccc(F)cc2)c2c(=O)n(C)c(=O)n(C)c2n1 | > 100 µM | 4.32 | 4.34 |  | 

From ChEMBL document CHEMBL5113479, “Pyrido[2,3-d]pyrimidine-2,4(1H,3H)-dione derivatives as RAF-MEK-ERK pathway signaling pathway blockers: Synthesis, cytotoxic activity, mechanistic investigation and structure-activity relationships” (Eur J Med Chem, 2022)
